Source: PubChem BioAssay (NCI)
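Step 1: Grow cells in 96-well plates. Step 2: Expose to compound for 48 hours at 5 concentrations. Step 3: Interpolate endpoints linearly; if unreached, use highest concentration. At the TGI there is no net growth.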

Legend:
Assay in all cases: NCI anticancer screen, dose series, 48 h
[1] = test system: ACHN renal
[2] = test system: CAKI-1 renal
[3] = test system: COLO 205 colon
[4] = test system: NCI/ADR-RES ovarian
[5] = test system: SK-OV-3 ovarian
[6] = test system: SNB-19 CNS
[7] = test system: SR leukemia
[8] = test system: T-47D breast
[9] = test system: UACC-257 melanoma
[10] = test system: UO-31 renal

Row | Structure (SMILES) | TGI [1] [µM] | TGI [2] [µM] | TGI [3] [µM] | TGI [4] [µM] | TGI [5] [µM] | TGI [6] [µM] | TGI [7] [µM] | TGI [8] [µM] | TGI [9] [µM] | TGI [10] [µM]
1 | CCOC(=O)C(NC(=O)c1cccc(Cl)c1)(N1CCN(c2cc3c(cc2F)c(=O)c(C(=O)O)cn3CC)CC1)C(F)(F)F (configuration not stated) | 32.9 | 60.9 | 32 | > 100 | 64.2 | > 100 | 52.2 | 51.4 | 54.9 | 46.6
2 | C[C@@H](c1ccccc1)N(CC#N)[C@H]1CCC[C@]1(O)/C=C/c1ccc2c(c1)OCO2 | 8.04 | > 25 | > 25 | > 25 | > 25 | > 25 | > 25 | > 25 | > 25 | > 25
3 | FC(F)(Sc1nc2ccccc2[nH]1)c1nc2ccccc2o1 | > 100 | > 100 | > 100 | > 100 | > 100 |  | > 100 | > 100 | > 100 | > 100
4 | O=C1C[C@@]23CCC4(CC2=CCC[C@H]3O1)OCCO4 | > 100 | > 100 | > 100 | > 100 | > 100 | > 100 | > 100 | > 100 | > 100 | 
5 | CCCCCCCCCCCCCCCC(=O)OCC(COP(=O)(O)OCCNC(=O)CCSSc1ccccn1)OC(=O)CCCCCCCCCCCCCCC (configuration not stated) | > 100 | > 100 | > 100 | > 100 | > 100 | > 100 | > 100 | > 100 | > 100 | > 100
6 | CC(C)S1=C2C(=O)CC(C)(C)CC2=Nc2ccccc21 (configuration not stated) | > 100 | > 100 | > 100 | > 100 | > 100 | > 100 | > 100 | > 100 | > 100 | > 100
7 | CCOC(=O)c1ccc(-c2cccs2)[nH]1 | > 100 | > 100 | > 100 | > 100 | > 100 | > 100 | > 100 | > 92.1 | > 100 | > 89
8 | CC(=O)OC1C(C)OC(OC2C[C@](O)(C(C)=O)Cc3c(O)c4c(c(O)c32)C(=O)c2ccccc2C4=O)C(F)C1OC(C)=O (some centres not stated) | 0.704 | 1.39 | > 100 | 9.46 | 22.1 | 4.99 | 0.887 | 41.2 | 9.02 | 0.567
9 | COc1ccc(/[N+]([O-])=C/c2ccccc2OC(=S)S)cc1 | > 100 | > 100 | > 100 | 94.9 | > 100 | > 100 | > 100 | > 100 | 97.1 | > 100
10 | Clc1cc2ncn(C3CCCO3)c2cc1Cl (configuration not stated) | > 100 | > 100 | > 100 | > 100 | > 100 | > 100 | > 100 | > 100 | > 100 | 53.6
11 | COc1ccc(NC(=S)Nc2cccc(C)n2)cc1 | > 100 | > 100 | > 100 | > 100 | > 100 | > 100 | > 100 | > 100 | > 100 | > 100
12 | CSC(=NCCCN=C(NS(=O)(=O)c1ccc(Cl)cc1)SC)NS(=O)(=O)c1ccc(Cl)cc1 | > 100 | > 100 | 51.6 | > 100 | > 100 | > 100 | > 100 | > 100 | > 100 | 40.5
13 | O=CC12CCCN1CCC2 | > 100 | > 100 | > 100 | > 100 | > 100 | > 100 | > 100 | > 100 | > 100 | > 100
14 | Nc1c(/C=C/c2cc3cc(C4=NCCN4)ccc3o2)[nH]c2cc(C3=NCCN3)ccc12 | > 100 | > 100 | > 100 | > 100 | > 100 | > 100 | > 100 | > 100 | > 100 | > 100
15 | CN1Cc2c(ccc3c2OCO3)[C@@H]2[C@H](O)Cc3cc4c(cc3[C@@H]21)OCO4 | > 100 | > 100 | 4.55 | > 100 | > 29.9 | > 26.5 | > 100 | > 100 | > 100 | > 100
16 | CO[C@@H](c1ccccc1)[C@H](O)[C@@](O)(c1ccccc1)P(=O)(OC)OC | > 100 | > 100 | > 100 | > 100 | > 100 | > 100 | > 100 | > 100 | > 100 | > 100
17 | CC(C)[C@H](NC(=O)OCc1ccccc1)C(=O)N[C@H](/C=C/C(=O)OC(C)(C)C)CO | > 100 | > 100 | > 100 | > 100 | > 100 | > 100 | > 100 | > 100 | > 100 | 
18 | N#Cc1c2c(c(Nc3ccc(Cl)cc3)n3c1nc1ccccc13)CCCC2 | > 100 | > 100 | > 100 | > 100 | > 100 | > 64.2 | > 100 | > 100 | > 100 | > 100
19 | N/N=C(\N)SCc1ccc(N=C=S)cc1 | > 100 | > 100 | > 100 | > 100 | > 100 | > 100 | > 100 | > 100 | > 100 | > 100
20 | C/C(=C\CNc1ncnc2c1ncn2CCC#N)CO | > 100 | > 100 | > 100 | > 100 | > 100 | > 100 | > 100 | > 100 | > 100 | > 100
21 | O=C1CSC(c2cccc(Oc3ccccc3)c2)N1c1cc(Cl)ccc1Cl (configuration not stated) | 49.1 | 48.8 | 90.8 | 77.4 | > 100 | 56.6 | 44 | 89.6 | 50.1 | 43.3
22 | CCOC(=O)c1c(SCCN(CC)CC)n(-c2ccccc2)c(=S)n(-c2ccccc2)c1=O | 3.2 | 4.68 | 6.2 | > 100 | 40.2 | 31.9 | 2.6 | 15.3 | 5.46 | 3.12
23 | COc1cc(CC2C(=O)OCC2Cc2ccc(OC)c(OC)c2)ccc1O (configuration not stated) | > 100 | > 100 | > 100 | > 100 | > 100 | > 100 | > 100 | > 100 | > 100 | > 100
24 | O=C(CCc1ccccc1)NCCc1ccc(O)c(O)c1 | > 100 | 29.4 | 58.5 | > 100 | > 100 | > 100 | > 77.3 | > 100 | > 100 | 49.2
25 | O=C1Cc2c(-c3ccccc3)cc(-c3ccc(Cl)cc3)nc2-c2ccccc2N1 | 7.36 | 16.2 | 18 | 14.8 | 7.85 | 6.35 | > 100 | 17.8 | > 58.2 | 7.31
26 | Nn1c(=S)[nH]nc(/C=C/c2c(O)ccc3ccccc23)c1=O | 51.7 | 36.1 | 27.7 | 14.4 | 95.4 | > 100 | 87.1 | 31.9 | 50.9 | 34.8
27 | CCOP(=O)(OCC)/C(C#N)=C(\C)c1ccco1 | > 10 | > 10 | > 10 | > 10 | > 10 | > 10 | > 10 | > 10 | > 10 | > 10
28 | CCCCN1/C(=N/Nc2n[nH]c(=O)c3ccccc23)SCC1c1ccc(Cl)cc1 (configuration not stated) | > 100 | 77.4 | > 100 | 47 | > 100 | 42 | 24.6 | > 100 | 45.6 | 93.3
29 | O=C1c2sccc2C(=O)c2c(CO)csc21 | 12.2 | 48.2 | 12.2 | 19.1 | 28.2 | 20.8 | > 73.2 | 17.5 | 5.24 | 26.2
